Data as given in the supplement of paper PMC10307832.

Tests used:
Assay in all cases: relative viability (nuclei count vs DMSO), 5 days (fraction); higher = more cells survive
[1] = compound: Cc1ccc(C(=O)Nc2cccc(C(F)(F)F)c2)cc1Nc1cncc(C(N)=O)c1 [ALW-II-49-7] + Cc1cc(Nc2cc(N3CCN(C)CC3)nc(Sc3ccc(NC(=O)C4CC4)cc3)n2)n[nH]1 [Tozasertib] (partner 0.1 µM)
Summary of the method: (§1)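 Lung cancer cell lines in 1536-well plates were dosed by pin tool the day after seeding, either with one drug alone or with a fixed anchor-drug dose plus five library-drug doses (not always all listed) in √10 steps. After 5 days, cells were fixed and their nuclei stained in one step (final 0.05% Triton X-100, 1% formaldehyde, 1 ug/ml Hoechst), then counted on 4× images. Relative viability is the nuclei count in treated wells divided by that in vehicle wells. Values are medians of duplicate plates.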

[2] = compound: Cc1nc(Nc2ncc(C(=O)Nc3c(C)cccc3Cl)s2)cc(N2CCN(CCO)CC2)n1 [Dasatinib] + COc1cc2c(Oc3ccc(NC(=O)C4(C(=O)Nc5ccc(F)cc5)CC4)cc3F)ccnc2cc1OCCCN1CCOCC1 [Foretinib] (partner 0.25 µM)
Summary of the method: as §1

[3] = compound: Cc1nc(Nc2ncc(C(=O)Nc3c(C)cccc3Cl)s2)cc(N2CCN(CCO)CC2)n1 [Dasatinib] + O=C(CCCCCCC(=O)Nc1ccccc1)NO [Vorinostat] (partner 1 µM)
Summary of the method: as §1

[4] = compound: Cc1nc(Nc2ncc(C(=O)Nc3c(C)cccc3Cl)s2)cc(N2CCN(CCO)CC2)n1 [Dasatinib] + CS(=O)(=O)CCNCc1ccc(-c2ccc3ncnc(Nc4ccc(OCc5cccc(F)c5)c(Cl)c4)c3c2)o1 [Lapatinib] (partner 2 µM)
Summary of the method: as §1

Cell Line | relative viability ([1]; first compound 0.08 µM) | relative viability ([1]; first compound 0.253 µM) | relative viability ([1]; first compound 2.53 µM) | relative viability ([1]; first compound 8 µM) | relative viability ([2]; first compound 0.005 µM) | relative viability ([2]; first compound 0.01581 µM) | relative viability ([2]; first compound 0.05 µM) | relative viability ([2]; first compound 0.1581 µM) | relative viability ([2]; first compound 0.5 µM) | relative viability ([3]; first compound 0.005 µM) | relative viability ([3]; first compound 0.01581 µM) | relative viability ([3]; first compound 0.05 µM) | relative viability ([3]; first compound 0.1581 µM) | relative viability ([3]; first compound 0.5 µM) | relative viability ([4]; first compound 0.005 µM) | relative viability ([4]; first compound 0.01581 µM) | relative viability ([4]; first compound 0.05 µM) | relative viability ([4]; first compound 0.1581 µM) | relative viability ([4]; first compound 0.5 µM) | relative viability ([1]; first compound 0.8 µM)
HCC-78 | 0.482 | 0.396 | 0.43 | 0.505 | 0.549 | 0.461 | 0.384 | 0.302 | 0.249 | 0.373 | 0.354 | 0.324 | 0.336 | 0.219 | 0.359 | 0.694 | 0.696 | 0.478 | 0.19 | 
HCC-366 | 0.168 | 0.17 | 0.0839 | 0.0614 | 0.739 | 0.588 | 0.543 | 0.563 | 0.449 | 0.377 | 0.225 | 0.312 | 0.238 | 0.22 | 0.99 | 0.713 | 0.695 | 0.446 | 0.337 | 0.0962
HCC-827 | 0.427 | 0.449 | 0.397 | 0.415 | 1.06 | 0.898 | 0.748 | 0.288 | 0.0947 | 0.787 | 0.744 | 0.742 | 0.615 | 0.157 | 0.173 | 0.18 | 0.139 | 0.16 | 0.131 | 0.4
HOP-62 | 0.278 | 0.341 | 0.358 | 0.289 | 1.18 | 1.12 | 1 | 0.518 | 0.197 | 0.738 | 0.606 | 0.642 | 0.293 | 0.132 | 1.02 | 0.971 | 0.789 | 0.983 | 0.337 | 0.368
IA-LM |  |  |  |  | 1.16 | 1.09 | 1.1 | 0.634 | 0.462 | 1.13 | 0.89 | 1.03 | 0.691 | 0.538 | 0.996 | 0.828 | 1.08 | 0.55 | 0.436 | 
LC-2-ad | 0.405 | 0.428 | 0.209 | 0.434 | 1.04 | 0.802 | 0.473 | 0.369 | 0.293 | 0.723 | 0.675 | 0.75 | 0.493 | 0.337 | 0.648 | 0.876 | 0.952 | 0.699 | 0.186 | 0.431
LCLC-97TM1 | 0.151 | 0.188 | 0.168 | 0.18 | 0.968 | 0.955 | 1.04 | 0.78 | 0.461 | 0.91 | 0.829 | 0.905 | 0.523 | 0.35 | 1.2 | 1.2 | 0.772 | 0.904 | 0.362 | 0.192
LCLC-103H | 0.451 | 0.453 | 0.451 | 0.389 | 0.725 | 0.626 | 0.55 | 0.378 | 0.157 | 0.852 | 0.787 | 0.694 | 0.582 | 0.293 |  |  |  |  |  | 0.486
LK-2 |  | 0.191 | 0.175 | 0.151 | 1.08 | 0.967 | 0.656 | 0.588 | 0.304 | 0.314 | 0.288 | 0.21 | 0.19 | 0.148 | 0.772 | 0.612 | 0.412 | 0.313 | 0.283 | 0.2
LOU-NH91 | 0.622 | 0.468 | 0.631 | 0.575 | 0.985 | 0.899 | 0.827 | 0.652 | 0.397 | 0.822 | 0.846 | 0.687 | 0.583 | 0.429 | 0.673 | 0.592 | 0.571 | 0.503 | 0.414 | 0.633
LU99A | 0.273 | 0.29 | 0.269 | 0.249 | 0.849 |  | 0.723 | 0.59 | 0.383 | 0.464 | 0.448 | 0.515 | 0.366 | 0.288 | 0.954 | 0.838 | 0.914 | 0.628 | 0.489 | 0.252
NCI-H441 | 0.709 | 0.512 | 0.54 | 0.478 | 1.06 | 0.988 | 1.02 | 0.701 | 0.382 | 0.778 | 0.651 | 0.887 | 0.813 | 0.581 |  |  |  |  |  | 0.751
NCI-H522 | 0.622 | 0.499 | 0.507 | 0.647 |  |  |  |  |  | 1.03 | 0.822 | 0.962 | 0.788 | 0.84 |  |  |  |  |  | 0.554
NCI-H1299 |  |  |  |  | 1.11 | 0.708 | 1.09 | 0.386 | 0.255 |  |  |  |  |  | 0.971 | 0.971 | 1.1 | 0.529 | 0.299 | 
NCI-H1563 |  |  |  |  | 0.82 | 0.751 | 0.746 | 0.578 | 0.517 |  |  |  |  |  | 0.868 | 0.708 | 0.758 | 0.656 | 0.506 | 
NCI-H1623 | 0.339 | 0.402 | 0.396 | 0.579 | 0.855 | 0.675 | 0.8 | 0.672 | 0.457 |  |  |  |  |  |  |  |  |  |  | 0.395
NCI-H1648 | 0.382 | 0.236 | 0.313 | 0.382 |  |  |  |  |  | 0.374 | 0.481 | 0.606 | 0.266 | 0.179 |  |  |  |  |  | 0.243
NCI-H1703 |  |  |  |  | 0.276 | 0.292 | 0.23 | 0.202 | 0.262 |  |  |  |  |  | 0.638 | 0.326 | 0.429 | 0.185 | 0.16 | 
NCI-H1792 |  |  |  |  |  |  |  |  |  |  |  |  |  |  | 0.885 | 0.859 | 0.907 | 0.673 | 0.364 | 
NCI-H2342 | 0.437 | 0.409 | 0.496 | 0.436 | 1.02 | 0.662 | 0.977 | 0.51 | 0.34 | 0.734 | 0.654 | 0.603 | 0.458 | 0.339 |  |  |  |  |  | 0.478
SW 900 | 0.573 | 0.568 | 0.279 | 0.377 | 0.685 | 0.608 | 0.787 | 0.476 | 0.225 | 0.356 | 0.282 | 0.289 | 0.163 | 0.192 |  |  |  |  |  | 0.479
